The source of these data is patent US20260184726A1, “HETEROCYCLIC COMPOUNDS AS KINASE INHIBITORS, COMPOSITIONS, AND METHODS OF USE THEREOF” (JS INNOMED HOLDINGS LTD., priority 2022, published 2026).

Some results are limits rather than exact numbers.

The test system of one test is BAF3 cells. Put plainly: BAF3 Cell Proliferation Assay (CellTiter-Glo, without RET driven, IL-3). To be noted: Mus musculus; growth inhibition in BAF3 cells, 72 hours, with IL-3; read-out: BAF3 Cellular Activity. The class given is cell-based. As for the experimental part: Compounds disclosed herein were tested for the inhibition BAF3 cells proliferation without RET driven by CellTiter-Glo assay. In this assay, a complete media was prepared by adding 10% fetal bovine serum and 1 ng/ml IL-3 to RPMI-1640 medium (Life technology) for BAF3 cells. BAF3 cells were added to each of 88 wells of a 96 well plate at a seeding density of 2,000 cells/well/95 μL. The cells were allowed to attach to the plate by incubating at 37° C. for 24 hours. The compound was dissolved in DMSO (SIGMA). A solution of test compound was prepared in complete media by serial dilution to obtain the following concentrations: 200 μM, 66.7 μM, 22.2 μM, 7.4 μM, 2.5 μM, 0.82 μM, 0.27 μM, 0.091 μM and […]. The test compound solution (5 μL) was added to each of 80 cell-containing wells. The final concentrations of the compound were following: 10 μM, 3.33 μM, 1.11 μM, 0.37 μM, 0.12 μM, 0.041 μM, 0.014 μM, 0.0046 μM and 0.0015 μM. The final concentration of DMSO is 0.1%. To the 8 remaining cell-containing wells, only complete media (containing 0.1% DMSO) was added to form a control group in order to measure maximal proliferation. To the remaining 8 empty wells, complete media was added to for a vehicle control group in order to measure background. The plates were incubated at 37° C. for 72 hours. 50 μl of CellTiter-Glo® Reagent was added to each well. The contents were mixed for 2 minutes on an orbital shaker to induce cell lysis, and then were incubated at room temperature for 10 minutes to stabilize luminescent signal. Luminescence was recorded on Paradigm. Cell viability (CV %) was calculated relative to vehicle (DMSO) treated control wells. The IC50 was calculated using GraphPad Prism.
For orientation: Cellular ATP, detected with luciferase, serves as a proxy for viable cell number.

The target of another test is T1, BAF3-KIF5B-RET cells (Homo sapiens, UniProt P07949).
T1 construct: fused on or other part: P33176 (Kinesin-1 heavy chain)
The test is described as follows: BAF3-KIF5B-RET Cell Proliferation Assay (CellTiter-Glo). To be noted: growth inhibition, 72 hours; Table 2; read-out: BA/F3-KIF5B-RET Cellular activity. The class given is cell-based. The protocol:
Compounds disclosed herein were tested for the inhibition of RET by a cancer cell proliferation assay commonly known as CellTiter-Glo assay. In this assay, a complete media was prepared by adding 10% fetal bovine serum to RPMI-1640 medium (Life technology) for RET-driven cancer cells (BAF3-FIF5B-RET, Ba/F3-KIF5B-RET-G810R, Ba/F3-TEL-RET-M918T or Ba/F3-KIF5B-RET-V804M). Individual RET-driven type of cells were added to each of 88 wells of a 96 well plate at a seeding density of 2,000 cells/well/95 μL. The cells were allowed to attach to the plate by incubating at 37° C. for 24 hours. The compound was dissolved in DMSO (SIGMA). A solution of test compound was prepared in complete media by serial dilution to obtain the following concentrations: 20 μM, 6.67 μM, 2.22 μM, 0.74 μM, 0.25 μM, 0.082 μM, 0.027 μM, 0.0091 μM and 0.0030 μM. The test compound solution (5 μL) was added to each of 80 cell-containing wells. The final concentrations of the compound were following: 1 μM, 0.33 μM, 0.11 μM, 0.037 μM, 0.012 μM, 0.0041 μM, 0.0014 μM, 0.00046 μM and 0.00015 μM. The final concentration of DMSO is 0.1%. To the 8 remaining cell-containing wells, only complete media (containing 0.1% DMSO) was added to form a control group in order to measure maximal proliferation. To the remaining 8 empty wells, complete media was added to for a vehicle control group in order to measure background. The plates were incubated at 37° C. for 72 hours. 50 μl of CellTiter-Glo® Reagent was added to each well. Mix contents for 2 minutes on an orbital shaker to induce cell lysis. Incubate at room temperature for 10 minutes to stabilize luminescent signal. Record luminescence on Paradigm. Cell viability (CV %) was calculated relative to vehicle (DMSO) treated control wells. The IC50 was calculated using GraphPad Prism.

T1 sequence (P07949 whole entry, change not shown, the tested form may be a part): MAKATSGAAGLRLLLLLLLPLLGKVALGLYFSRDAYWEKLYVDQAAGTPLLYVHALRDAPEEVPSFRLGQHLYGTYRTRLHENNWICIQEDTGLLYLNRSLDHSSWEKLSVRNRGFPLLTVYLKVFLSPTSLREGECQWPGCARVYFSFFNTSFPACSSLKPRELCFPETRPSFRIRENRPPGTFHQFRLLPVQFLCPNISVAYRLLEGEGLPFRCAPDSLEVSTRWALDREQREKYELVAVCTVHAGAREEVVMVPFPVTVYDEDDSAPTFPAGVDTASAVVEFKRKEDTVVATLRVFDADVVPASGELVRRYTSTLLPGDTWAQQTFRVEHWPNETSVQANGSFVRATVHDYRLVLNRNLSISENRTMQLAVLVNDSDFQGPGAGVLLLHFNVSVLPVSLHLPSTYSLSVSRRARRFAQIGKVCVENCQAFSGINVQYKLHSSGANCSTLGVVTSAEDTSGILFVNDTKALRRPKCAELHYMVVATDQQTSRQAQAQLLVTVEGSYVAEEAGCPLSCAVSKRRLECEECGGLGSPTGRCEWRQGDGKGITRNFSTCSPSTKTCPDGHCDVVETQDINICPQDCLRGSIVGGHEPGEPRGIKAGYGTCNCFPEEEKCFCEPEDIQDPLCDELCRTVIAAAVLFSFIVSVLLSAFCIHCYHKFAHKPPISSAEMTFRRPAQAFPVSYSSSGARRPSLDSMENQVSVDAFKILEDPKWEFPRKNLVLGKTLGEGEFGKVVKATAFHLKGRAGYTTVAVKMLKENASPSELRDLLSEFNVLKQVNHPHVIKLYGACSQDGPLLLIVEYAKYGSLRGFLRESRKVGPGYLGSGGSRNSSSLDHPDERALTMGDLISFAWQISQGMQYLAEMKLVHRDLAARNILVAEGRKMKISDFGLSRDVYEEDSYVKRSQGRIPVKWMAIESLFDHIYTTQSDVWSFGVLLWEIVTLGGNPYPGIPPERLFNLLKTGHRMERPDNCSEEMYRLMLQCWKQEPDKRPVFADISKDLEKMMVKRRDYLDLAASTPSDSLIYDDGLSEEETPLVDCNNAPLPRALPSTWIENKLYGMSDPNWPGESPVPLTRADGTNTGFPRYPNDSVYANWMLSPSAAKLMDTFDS

In the case of `COc1ccc(CN2C3CC2CN(c2ccc(-c4cc(-c5ccc(OCC(C)(C)O)cn5)cn5ncc(C#N)c45)cn2)C3)cn1` [Example 32, 6-(5-(2-hydroxy-2-methylpropoxy)pyridin-2-yl)-4-(6-(6-((6-methoxypyridin-3-yl)methyl)-3,6-diazabicyclo[3.1.1]heptan-3-yl)pyridin-3-yl)pyrazolo[1,5-a]pyridine-3-carbonitrile], the IC50 with BAF3 cells was found to be 1620 nM. Also, at BAF3-KIF5B-RET cells, the GI50 was found to be 1.4 nM.

Regarding `COc1ccc(CN2C3CC2CN(c2ccc(-c4cc(-c5ccc(S(N)(=O)=O)cn5)cn5ncc(C#N)c45)cn2)C3)cn1` [Example 36, 6-(3-cyano-4-(6-(6-((6-methoxypyridin-3-yl)methyl)-3,6-diazabicyclo[3.1.1]heptan-3-yl)pyridin-3-yl)pyrazolo[1,5-a]pyridin-6-yl)pyridine-3-sulfonamide], the IC50 in the test with BAF3 cells stood at 8210 nM. In addition, the GI50 at BAF3-KIF5B-RET cells is 16.6 nM.

Turning to `COc1ccc(CN2C3CC2CN(c2ccc(-c4cc(-c5ccc(C(C)(C)N)cn5)cn5ncc(C#N)c45)cn2)C3)cn1` [Example 16, 6-(5-(2-aminopropan-2-yl)pyridin-2-yl)-4-(6-(6-((6-methoxypyridin-3-yl)methyl)-3,6-diazabicyclo[3.1.1]heptan-3-yl)pyridin-3-yl)pyrazolo[1,5-a]pyridine-3-carbonitrile], the IC50 in the test on BAF3 cells turned out to be 1080 nM. Further, the GI50 on BAF3-KIF5B-RET cells amounted to 2.2 nM.

As for `COc1ccc(CN2C3CC2CN(c2ccc(-c4cc(-c5cncc(C(C)(C)O)c5)cn5ncc(C#N)c45)cn2)C3)cn1` [Example 7, 6-(5-(2-hydroxypropan-2-yl)pyridin-3-yl)-4-(6-(6-((6-methoxypyridin-3-yl)methyl)-3,6-diazabicyclo[3.1.1]heptan-3-yl)pyridin-3-yl)pyrazolo[1,5-a]pyridine-3-carbonitrile], in the test with BAF3 cells, the IC50 is over 10000 nM. The GI50 at BAF3-KIF5B-RET cells was determined as 48.1 nM.

`COc1ccc(C(=O)N2C3CC2CN(c2ccc(-c4cc(-c5ccc(C(C)(C)O)cn5)cn5ncc(C#N)c45)cn2)C3)cn1` [Example 25, 6-(5-(2-hydroxypropan-2-yl)pyridin-2-yl)-4-(6-(6-(6-methoxynicotinoyl)-3,6-diazabicyclo[3.1.1]heptan-3-yl)pyridin-3-yl)pyrazolo[1,5-a]pyridine-3-carbonitrile]: the IC50 in the test on BAF3 cells was 6650 nM. The GI50 on BAF3-KIF5B-RET cells came to 2.7 nM.

For the molecule `COc1ccc(CN2C3CC2CN(c2ccc(-c4cc(-c5ccc(C(C)(C)O)cc5)cn5ncc(C#N)c45)cn2)C3)cn1` [Example 22, 6-(4-(2-hydroxypropan-2-yl)phenyl)-4-(6-(6-((6-methoxypyridin-3-yl)methyl)-3,6-diazabicyclo[3.1.1]heptan-3-yl)pyridin-3-yl)pyrazolo[1,5-a]pyridine-3-carbonitrile], in the test on BAF3 cells, the IC50 worked out at 756 nM. The GI50 at BAF3-KIF5B-RET cells was determined as 0.7 nM.

`COc1ccc(CN2C3CC2CN(c2ccc(-c4cc(-c5ccn(CC(C)(C)O)n5)cn5ncc(C#N)c45)cn2)C3)cn1` [Example 34, 6-(1-(2-hydroxy-2-methylpropyl)-1H-pyrazol-3-yl)-4-(6-(6-((6-methoxypyridin-3-yl)methyl)-3,6-diazabicyclo[3.1.1]heptan-3-yl)pyridin-3-yl)pyrazolo[1,5-a]pyridine-3-carbonitrile]: the IC50 with BAF3 cells came to 1800 nM. At BAF3-KIF5B-RET cells, the GI50 came to 0.7 nM.

As for `COc1ccc(CN2C3CC2CN(c2ccc(-c4cc(-c5ccc(C(C)(C)O)s5)cn5ncc(C#N)c45)cn2)C3)cn1` [Example 27, 6-(5-(2-hydroxypropan-2-yl)thiophen-2-yl)-4-(6-(6-((6-methoxypyridin-3-yl)methyl)-3,6-diazabicyclo[3.1.1]heptan-3-yl)pyridin-3-yl)pyrazolo[1,5-a]pyridine-3-carbonitrile], the IC50 with BAF3 cells was 913 nM. For the same molecule, at BAF3-KIF5B-RET cells, the GI50 was found to be 0.7 nM.
